# Data from ChEMBL document CHEMBL4270483, “Effect of Hops Derived Prenylated Phenols on TNF-α Induced Barrier Dysfunction in Intestinal Epithelial Cells” (J Nat Prod, 2017).
# Activity calls are given as the source filed them. The calls are words filed in the database; no cut-off is given here.
# Assays:
# Caco-2 [1] = assay: Cytotoxicity in human Caco2 cells assessed as reduction in ATP metabolism at 50 to 100 uM incubated for 24 hrs by cell-titer-Glo luminescent cell viability assay; assay type: ADME, cell-based; settings: caco-2, 24 h
# Caco-2 [2] = assay: Stimulation of growth in human Caco2 cells assessed as […] in ATP metabolism at 10 uM incubated for 24 hrs by cell-titer-Glo luminescent cell viability assay; assay type: functional, cell-based
# Caco-2 [3] = assay: Effect on barrier function in human Caco2 cells assessed as LY transport at 10 uM pre-treated on apical side for 1 hr and measured after 48 hrs; assay type: ADME, cell-based; settings: caco-2, 48 h
# Caco-2 [4] = assay: Increase in transepithelial electrical resistance in human Caco2 cells at 10 uM pre-treated on apical side and measured after 36 to 72 hrs; assay type: functional, cell-based
# Caco-2 [5] = assay: Inhibition of TNFalpha induced barrier dysfunctionin human Caco2 cells assessed as increase in transepithelial electrical resistance at 10 uM pre-treated on apical side for 1 hr before TNFalpha stimulation on basolateral side for 72 hrs by cellZScope monitoring device based assay; assay type: functional, cell-based
# Caco-2 [6] = assay: Inhibition of TNFalpha induced barrier dysfunctionin human Caco2 cells assessed as increase in transepithelial electrical resistance at 10 uM treated on apical side for 1 hr post TNFalpha stimulation on basolateral side for 24 hrs and measured after 72 hrs by cellZScope monitoring device based assay; assay type: functional, cell-based
# Caco-2 [7] = assay: Inhibition of TNFalpha induced barrier dysfunctionin human Caco2 cells assessed as prevention of morphological changes in ZO1 protein at 10 uM pre-treated on apical side for 1 hr before TNFalpha stimulation on basolateral side for 48 hrs by confocal laser scanning microscopy; assay type: functional, cell-based
# Caco-2 [8] = assay: Cytotoxicity in human Caco2 cells assessed as reduction in ATP metabolism at 100 uM incubated for 24 hrs by cell-titer-Glo luminescent cell viability assay; assay type: ADME, cell-based; settings: caco-2, 24 h
# Caco-2 [9] = assay: Cytotoxicity in human Caco2 cells assessed as reduction in ATP metabolism at 1 to 50 uM incubated for 24 hrs by cell-titer-Glo luminescent cell viability assay; assay type: ADME, cell-based; settings: caco-2, 24 h
# Caco-2 [10] = assay: Cytotoxicity in human Caco2 cells assessed as reduction in ATP metabolism at 1 to 100 uM incubated for 24 hrs by cell-titer-Glo luminescent cell viability assay; assay type: ADME, cell-based; settings: caco-2, 24 h
Structure (SMILES),Activity (Caco-2 [1]),Activity (Caco-2 [2]),Activity (Caco-2 [3]),Activity (Caco-2 [4]),inhibition (Caco-2 [5]),inhibition (Caco-2 [6]),inhibition (Caco-2 [7]),Activity (Caco-2 [8]),Activity (Caco-2 [9]),Activity (Caco-2 [10])
COc1cc(O)c(CC=C(C)C)c(O)c1C(=O)/C=C/c1ccc(O)cc1 [XANTHOHUMOL],55.3%,Active,Non-Toxic,Active,inactive,inactive,inactive,,,
CC(C)=CCc1c(O)cc2c(c1O)C(=O)CC(c1ccc(O)cc1)O2 (centres undefined),,,Non-Toxic,Active,Active,inactive,,18%,Non-Toxic,
CC(C)=CCc1c(O)cc(O)c2c1O[C@H](c1ccc(O)cc1)CC2=O,,,Non-Toxic,Active,Active,Active,Active,,,Non-Toxic
